We go through 24 compounds from ChEMBL document CHEMBL1201862, “PubChem BioAssay data set” (2004).

A word on the CC50: it is the concentration that lowers cell viability or growth by half. As usually defined, the EC50 is the concentration needed to bring the measured effect to its halfway point. Usually AC50 stands for the concentration giving half of the maximal activity seen.

The target of experiment [1] is T1, High affinity choline transporter 1 (Homo sapiens, UniProt Q9GZV3).
T1 sequence (Q9GZV3 whole entry): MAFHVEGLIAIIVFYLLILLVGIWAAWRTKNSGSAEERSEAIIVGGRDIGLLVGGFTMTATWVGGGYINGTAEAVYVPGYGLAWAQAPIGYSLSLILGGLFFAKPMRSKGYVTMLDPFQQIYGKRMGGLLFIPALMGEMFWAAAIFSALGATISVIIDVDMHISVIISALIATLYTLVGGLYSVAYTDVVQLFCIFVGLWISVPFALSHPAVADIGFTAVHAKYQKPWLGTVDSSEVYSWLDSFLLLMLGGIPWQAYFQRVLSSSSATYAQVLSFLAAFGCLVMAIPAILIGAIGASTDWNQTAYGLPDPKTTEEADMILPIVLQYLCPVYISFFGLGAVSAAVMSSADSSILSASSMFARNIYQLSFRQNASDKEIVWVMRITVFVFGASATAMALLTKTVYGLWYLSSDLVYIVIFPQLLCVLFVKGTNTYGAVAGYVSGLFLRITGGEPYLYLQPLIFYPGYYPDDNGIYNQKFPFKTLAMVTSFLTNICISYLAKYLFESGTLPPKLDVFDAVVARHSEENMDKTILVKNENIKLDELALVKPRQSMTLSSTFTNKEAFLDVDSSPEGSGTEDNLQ
Description: CHT inhibitors, dose response, cell-based, 5-point CRC, membrane potential dye (AID 504840). Type of experiment: functional.

Experiment [2] addresses Induced myeloid leukemia cell differentiation protein Mcl-1 (Homo sapiens, UniProt Q07820). It counts as functional.
Experiment [3] is described as follows: Vero E6 cell cytotoxicity, dose response, cytotoxicity control for non-replicating M. tuberculosis project, secondary assay (AID 492998). It counts as functional, VeroE6. To be noted: Vero C1008.
Experiment [4] in a line: cells. Type of experiment: functional.
Experiment [5] in a line: THP-1 cell cytotoxicity, dose response, cytotoxicity control for non-replicating M. tuberculosis project (AID 489025). It counts as functional.
A short description of experiment [6]: M. tuberculosis H37Rv growth inhibitors, H37Rv strain (AID 1626). It counts as functional.
For experiment [7], the target named is T2, Short transient receptor potential channel 4 (Mus musculus, UniProt Q9QUQ5).
T2 sequence (Q9QUQ5 whole entry): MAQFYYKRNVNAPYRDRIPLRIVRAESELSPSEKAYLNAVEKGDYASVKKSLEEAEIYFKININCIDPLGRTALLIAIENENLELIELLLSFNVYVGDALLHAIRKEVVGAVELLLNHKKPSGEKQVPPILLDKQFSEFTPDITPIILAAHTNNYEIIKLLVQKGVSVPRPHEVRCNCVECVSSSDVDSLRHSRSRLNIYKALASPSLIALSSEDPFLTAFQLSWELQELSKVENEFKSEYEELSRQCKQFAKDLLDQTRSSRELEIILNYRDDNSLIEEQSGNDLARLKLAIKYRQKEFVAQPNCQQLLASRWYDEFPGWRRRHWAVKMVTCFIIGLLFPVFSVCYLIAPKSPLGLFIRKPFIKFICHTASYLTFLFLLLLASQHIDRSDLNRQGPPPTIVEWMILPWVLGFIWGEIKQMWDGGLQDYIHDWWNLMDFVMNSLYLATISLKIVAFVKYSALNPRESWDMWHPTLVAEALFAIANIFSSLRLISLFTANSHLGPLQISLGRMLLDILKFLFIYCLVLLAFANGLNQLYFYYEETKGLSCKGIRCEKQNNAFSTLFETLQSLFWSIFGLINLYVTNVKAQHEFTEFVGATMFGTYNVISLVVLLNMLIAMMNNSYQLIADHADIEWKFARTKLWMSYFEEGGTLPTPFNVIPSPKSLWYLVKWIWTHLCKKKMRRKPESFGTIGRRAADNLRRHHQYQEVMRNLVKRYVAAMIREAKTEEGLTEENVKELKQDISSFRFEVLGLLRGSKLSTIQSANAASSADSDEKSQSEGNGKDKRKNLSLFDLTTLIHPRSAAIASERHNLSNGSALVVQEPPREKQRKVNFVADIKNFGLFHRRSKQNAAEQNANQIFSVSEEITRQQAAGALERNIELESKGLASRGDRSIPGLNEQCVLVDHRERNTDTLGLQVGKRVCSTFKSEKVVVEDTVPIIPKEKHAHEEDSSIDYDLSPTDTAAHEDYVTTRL
In words: mouse TRPC4 channel inhibitors, dose response, cell-based, HEK293 TRPC4/mu-opioid, Fluo-4 calcium (AID 434942).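 Note: potency of inhibitors blocking the TRPC4 calcium response.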 Type of experiment: functional.

The target of experiment [8] is T3, Fatty acid synthase (Homo sapiens, UniProt P49327). In words: FAS thioesterase domain inhibitors, dose response, biochemical, kinetic fluorescence intensity (AID 624326).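 Note: rate of fluorescence rise from hydrolysis of a fluorogenic O-methyl fluorescein ester substrate.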 Type of experiment: functional.
Experiment [9] concerns the target T3, Fatty acid synthase. Description: FAS thioesterase domain inhibitors, dose response, biochemical, endpoint fluorescence intensity, uHTS hits (AID 624327).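 Note: fluorescence from hydrolysis of an O-methyl fluorescein acyl ester substrate by the enzyme.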 It counts as functional.
A short description of experiment [10]: Luminescence Cell-Based Dose Confirmation HTS to Identify Activators of 5'UTR Stem-Loop Driven Alpha-Synuclein mRNA Translation in H4 Neuroglioblastoma Cells. [Related pubchem assays: 1829 (Project Summary), 1814 (Primary HTS)]. It counts as functional.
A short description of experiment [11]: Luminescence Cell-Based Dose Response HTS to Identify Activators of Luciferase Translation or Activity in H4 […] Cells. [Related pubchem assays: 1829 (Project Summary), 1814 (Primary HTS)]. It counts as functional.
Experiment [12] concerns H4. In words: Luminescence Cell-Based Dose Response HTS to Identify Activators of 5'UTR Stem-Loop Driven Prion Protein mRNA Translation in H4 Neuroglioblastoma Cells. [Related pubchem assays: 1829 (Project Summary), 1814 (Primary HTS)]. Type of experiment: functional. To be noted: Homo sapiens.
Experiment [13] can be described thus: inhibitors of clade B AD8 Env fusion, dose response, cell-based, cherry-pick (AID 652062).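 Note: luciferase signal from cell-cell fusion driven by HIV-1 clade B AD8 Env; potency is for inhibitors of fusion seen as a drop in luminescence.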 It counts as functional.
For experiment [14], the system named is INS1. In words: beta cell apoptosis inhibitors, cytokine rescue, dose response, luminescence, retest (AID 449756).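 Note: cell death triggered by IL-1 beta plus TNF-alpha plus IFN-gamma mixture; protective hits raise ATP signal compared with cytokine alone wells.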 It counts as functional, cell-based. To be noted: Rattus norvegicus.
For experiment [15], the target named is Voltage-dependent T-type calcium channel subunit alpha-1H (Homo sapiens, UniProt O95180). It counts as functional.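 Note: channel activity triggered by adding a high calcium stimulation buffer.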
For experiment [16], the target named is T4, Polyadenylate-binding protein 1 (Homo sapiens, UniProt P11940). Description: PABP1 MLLE–PAM2 interaction inhibitors, dose response, miRNA deadenylation inhibitor project, biochemical, fluorescence polarization, Cy5-PAM2 peptide, secondary (AID 602260). It counts as functional. To be noted: read-out: IC50_Mean. (In fluorescence polarisation assays a small probe gives low polarisation when free and higher when bound to something large.)

Experiment [17] deals with T4, Polyadenylate-binding protein 1. In words: PABP1 MLLE–PAM2 binding inhibitor potency, dose response, biochemical, fluorescence polarization, FITC-PAM2 peptide (AID 602259). It counts as functional. To be noted: read-out: IC50_Mean.
The target of experiment [18] is T5, Low molecular weight phosphotyrosine protein phosphatase (Homo sapiens, UniProt P24666).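 Note: Dose-response confirmation assay measuring inhibition of LMPTP enzyme activity by fluorescence intensity read-out.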
T5 sequence (P24666 whole entry): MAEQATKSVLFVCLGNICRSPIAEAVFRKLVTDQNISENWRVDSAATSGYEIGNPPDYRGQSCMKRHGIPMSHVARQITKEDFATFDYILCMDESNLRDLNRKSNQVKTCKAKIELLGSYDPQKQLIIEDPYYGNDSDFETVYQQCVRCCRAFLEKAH
Type of experiment: functional. To be noted: read-out: IC50_Mean.

The subject of experiment [19] is Streptococcus. In words: Group A Streptococcus viability loss, dose response, counter-screen for streptokinase expression inhibitor project, luminescence, BacTiterGlo (AID 1915).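 Note: potency for reduction of bacterial viability or growth.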 It counts as functional, organism-based. On the technique in general: Counterscreens check selectivity or assay interference.
Experiment [20] deals with T6, Streptokinase A (Streptococcus pyogenes serotype M1, UniProt P10520).
T6 sequence (P10520 whole entry): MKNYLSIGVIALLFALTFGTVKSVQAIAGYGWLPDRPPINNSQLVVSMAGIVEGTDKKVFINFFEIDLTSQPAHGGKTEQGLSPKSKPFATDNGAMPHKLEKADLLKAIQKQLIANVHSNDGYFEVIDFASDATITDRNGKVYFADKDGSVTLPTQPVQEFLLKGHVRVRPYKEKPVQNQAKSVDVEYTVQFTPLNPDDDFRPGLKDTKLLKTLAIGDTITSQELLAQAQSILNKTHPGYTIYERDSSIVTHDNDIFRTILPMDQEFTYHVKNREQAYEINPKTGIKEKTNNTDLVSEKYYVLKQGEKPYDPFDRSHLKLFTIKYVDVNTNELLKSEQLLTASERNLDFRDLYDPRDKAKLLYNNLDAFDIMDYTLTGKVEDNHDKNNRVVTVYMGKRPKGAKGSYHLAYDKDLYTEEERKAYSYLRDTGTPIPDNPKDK
In words: S. pyogenes streptokinase expression inhibitors, potency, dose response, plasminogen activation absorbance, OD405 (AID 1914).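 Note: secreted streptokinase activity via plasminogen activation per viability signal from cell pellet.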 Type of experiment: functional, Streptococcus pyogenes M1 GAS.

The subject of experiment [21] is Streptococcus sp. 'group A'. Description: growth inhibition of control SK(-) GAS strain, dose response, counter-screen for streptokinase expression inhibitor project, luminescence, kanamycin, BacTiterGlo, confirmation (AID 1900). Type of experiment: functional, organism-based.
Experiment [22] relates to H9c2. Description: cells. It counts as functional, cell-based. To be noted: Rattus norvegicus, H9c2, Myocardium.

The source made the active and inactive calls.

Sequence of Voltage-dependent T-type calcium channel subunit alpha-1H (O95180 whole entry): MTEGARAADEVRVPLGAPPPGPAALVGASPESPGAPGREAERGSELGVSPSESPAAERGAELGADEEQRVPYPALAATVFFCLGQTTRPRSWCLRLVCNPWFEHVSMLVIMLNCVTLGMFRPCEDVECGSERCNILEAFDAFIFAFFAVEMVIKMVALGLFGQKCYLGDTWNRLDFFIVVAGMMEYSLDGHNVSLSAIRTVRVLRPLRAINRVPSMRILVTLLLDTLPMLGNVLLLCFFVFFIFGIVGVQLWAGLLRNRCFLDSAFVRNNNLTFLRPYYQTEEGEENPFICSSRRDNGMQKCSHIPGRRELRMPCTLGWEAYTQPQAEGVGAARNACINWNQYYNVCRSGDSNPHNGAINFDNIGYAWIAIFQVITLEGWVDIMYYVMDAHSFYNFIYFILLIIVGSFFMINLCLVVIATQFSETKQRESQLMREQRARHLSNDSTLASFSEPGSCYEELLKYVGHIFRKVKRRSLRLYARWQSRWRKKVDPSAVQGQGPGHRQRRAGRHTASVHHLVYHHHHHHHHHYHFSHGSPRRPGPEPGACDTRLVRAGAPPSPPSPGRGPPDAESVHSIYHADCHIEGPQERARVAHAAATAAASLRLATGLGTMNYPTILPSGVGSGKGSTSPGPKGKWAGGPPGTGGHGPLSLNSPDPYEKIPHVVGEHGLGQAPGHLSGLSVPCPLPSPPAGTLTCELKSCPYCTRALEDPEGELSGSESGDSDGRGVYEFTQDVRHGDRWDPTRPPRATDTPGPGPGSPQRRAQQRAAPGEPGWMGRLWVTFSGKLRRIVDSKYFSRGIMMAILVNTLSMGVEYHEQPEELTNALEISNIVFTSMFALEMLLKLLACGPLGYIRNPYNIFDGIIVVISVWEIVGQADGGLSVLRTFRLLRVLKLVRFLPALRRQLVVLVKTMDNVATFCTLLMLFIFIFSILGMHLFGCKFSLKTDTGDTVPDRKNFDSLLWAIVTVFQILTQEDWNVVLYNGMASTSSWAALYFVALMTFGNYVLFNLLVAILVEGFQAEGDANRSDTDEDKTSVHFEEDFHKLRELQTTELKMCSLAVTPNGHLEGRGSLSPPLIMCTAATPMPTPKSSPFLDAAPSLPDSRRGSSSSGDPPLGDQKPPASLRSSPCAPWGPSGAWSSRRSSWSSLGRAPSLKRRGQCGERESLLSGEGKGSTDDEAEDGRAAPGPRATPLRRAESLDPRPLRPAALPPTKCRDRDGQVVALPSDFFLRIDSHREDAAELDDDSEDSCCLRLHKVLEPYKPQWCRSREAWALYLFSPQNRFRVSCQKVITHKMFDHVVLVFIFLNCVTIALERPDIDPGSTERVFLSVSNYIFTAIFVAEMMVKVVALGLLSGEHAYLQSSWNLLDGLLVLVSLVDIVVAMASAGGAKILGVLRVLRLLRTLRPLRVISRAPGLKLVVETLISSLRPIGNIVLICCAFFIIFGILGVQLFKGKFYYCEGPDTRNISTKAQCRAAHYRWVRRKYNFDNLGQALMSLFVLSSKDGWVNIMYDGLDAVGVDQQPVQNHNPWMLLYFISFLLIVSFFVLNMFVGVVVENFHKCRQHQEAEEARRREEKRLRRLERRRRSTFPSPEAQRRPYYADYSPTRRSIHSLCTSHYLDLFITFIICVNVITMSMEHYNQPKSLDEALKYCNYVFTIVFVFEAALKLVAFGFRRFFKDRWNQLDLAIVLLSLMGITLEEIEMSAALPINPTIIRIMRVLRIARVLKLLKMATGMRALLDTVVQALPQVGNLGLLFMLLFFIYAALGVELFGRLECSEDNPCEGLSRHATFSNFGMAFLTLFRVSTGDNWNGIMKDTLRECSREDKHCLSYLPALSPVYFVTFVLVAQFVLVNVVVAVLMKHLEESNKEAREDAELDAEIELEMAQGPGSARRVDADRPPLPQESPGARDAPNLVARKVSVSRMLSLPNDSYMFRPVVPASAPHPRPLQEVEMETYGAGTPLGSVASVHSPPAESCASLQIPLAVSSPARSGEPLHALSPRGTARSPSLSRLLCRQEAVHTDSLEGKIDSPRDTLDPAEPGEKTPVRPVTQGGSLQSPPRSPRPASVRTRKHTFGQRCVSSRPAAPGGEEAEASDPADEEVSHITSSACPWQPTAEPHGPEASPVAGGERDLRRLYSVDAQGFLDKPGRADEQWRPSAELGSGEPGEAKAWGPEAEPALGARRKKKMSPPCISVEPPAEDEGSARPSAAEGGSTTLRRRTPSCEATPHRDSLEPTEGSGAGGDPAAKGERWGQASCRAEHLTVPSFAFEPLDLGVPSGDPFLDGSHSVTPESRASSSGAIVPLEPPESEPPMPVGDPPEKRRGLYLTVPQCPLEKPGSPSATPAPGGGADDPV
T4 sequence (P11940 whole entry): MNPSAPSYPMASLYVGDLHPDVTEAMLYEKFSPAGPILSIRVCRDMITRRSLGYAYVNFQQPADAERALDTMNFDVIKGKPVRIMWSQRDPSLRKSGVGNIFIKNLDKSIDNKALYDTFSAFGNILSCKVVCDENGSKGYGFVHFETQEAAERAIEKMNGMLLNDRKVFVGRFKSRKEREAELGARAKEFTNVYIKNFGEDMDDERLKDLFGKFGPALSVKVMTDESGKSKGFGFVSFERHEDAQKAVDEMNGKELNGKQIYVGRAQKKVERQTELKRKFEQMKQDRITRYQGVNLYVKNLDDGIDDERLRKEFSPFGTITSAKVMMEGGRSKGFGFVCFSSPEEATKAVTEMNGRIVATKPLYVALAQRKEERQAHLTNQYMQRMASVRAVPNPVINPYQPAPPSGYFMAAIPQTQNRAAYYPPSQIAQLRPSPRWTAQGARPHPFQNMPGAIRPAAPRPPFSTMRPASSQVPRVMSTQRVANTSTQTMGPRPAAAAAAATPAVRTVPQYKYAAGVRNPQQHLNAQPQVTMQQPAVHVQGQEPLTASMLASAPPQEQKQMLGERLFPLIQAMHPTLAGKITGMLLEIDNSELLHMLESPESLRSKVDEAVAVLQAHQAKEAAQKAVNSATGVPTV
Sequence of Induced myeloid leukemia cell differentiation protein Mcl-1 (Q07820 whole entry): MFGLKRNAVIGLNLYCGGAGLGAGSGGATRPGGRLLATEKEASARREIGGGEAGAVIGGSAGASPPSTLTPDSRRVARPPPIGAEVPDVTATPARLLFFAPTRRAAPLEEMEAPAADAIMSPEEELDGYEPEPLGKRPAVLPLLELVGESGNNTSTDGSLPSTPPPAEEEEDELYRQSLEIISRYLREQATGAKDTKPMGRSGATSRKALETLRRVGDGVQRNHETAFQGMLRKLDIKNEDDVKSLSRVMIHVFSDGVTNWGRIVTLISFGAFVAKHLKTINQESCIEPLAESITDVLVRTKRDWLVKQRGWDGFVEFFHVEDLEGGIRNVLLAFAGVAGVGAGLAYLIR

As for `O=C(O)CSc1cc(C(=O)c2cc(F)ccc2O)cn2c(=O)c3c(-c4ccccc4)csc3nc12`, the IC50 was 16.6 µM (active) in experiment [1] and 2.79 µM (active) in experiment [2].
For the compound `CCn1c(NC(=O)c2ccccc2)nc2ccccc21`, the cytotoxic concentration (CC50) in experiment [3] is 19.6 µM (active); in experiment [5], > 40 µM (active). Moreover, the IC50 in experiment [4] was 1.94 µM (active).
Take `COc1ccc(N=C2C(=O)Nc3c(C)cccc32)cc1`: the IC50 in experiment [6] is > 100 µM (active).
As for `O=C1/C(=C/c2ccccc2Cl)SC(=S)N1CCCC(=O)N(CCO)c1ccccc1`, the concentration giving a half-maximal response (EC50) in experiment [7] was 0.473 µM (active). The IC50 in experiment [8] is 9.91 µM (active); in experiment [9] it was 14.2 µM (active).
Turning to `Cn1cnnc1SCc1ccc(-c2ccc(Br)cc2)o1`, the EC50 was 20.7 µM (active) in experiment [10], 21.2 µM (active) in [11] and 22.2 µM (active) in [12]. Also, the IC50 in experiment [6] is > 100 µM (active).
As to `CCCn1c2ccccc2c2cnn(CC(=O)NCCCN3CCCCC3CC)c(=O)c21` (configuration not stated), the IC50 in experiment [1] was 13.6 µM (active).
Turning to `CC(C)OCCCNc1[nH]cnc2c3ccccc3nc1-2`, the results for the concentration at half-maximal activity (AC50) in experiment [13] and in experiment [14] were 5.7 µM (active) and 2.87 µM (active), respectively.
With `CCN(Cc1ccccc1)C(c1ccccn1)c1nnnn1C1CCCCC1` (configuration not stated), the EC50 in experiment [15] was 3.93 µM (active).
`O=C(CCN1CCOCC1)NNC(=S)NC(=O)c1ccccc1`: the IC50 in [16] and in experiment [17] was > 66 µM (inactive) throughout.
For the compound `COc1cccc(N2CCN(C(=O)C3CCCN(c4ncnc5c4nc4n5CCCCC4)C3)CC2)c1` (configuration not stated), the IC50 in experiment [1] is 16.6 µM (active).
For `CCCNC(=O)NCCc1c(C)[nH]c2ccccc12`, the IC50 in experiment [16] was > 66 µM (inactive); in experiment [17], 45.9 µM (inactive).
As for `Cc1[nH]c2ccccc2c1C(=O)CN1CCCC(C)C1` (configuration not stated), the IC50 in experiment [1] is 15.8 µM (active).
On to `O=C(N=Nc1c(O)[nH]c2ccc(F)cc12)c1ccc(NS(=O)(=O)c2cccs2)cc1`, for which the IC50 in [18] is 80 µM (inactive).
Take `O=C(OCc1nc2ccccc2s1)c1cccs1`: the EC50 in experiment [15] is 12.2 µM (active).
As for `Cn1cc(C(=O)c2ccc(Cl)cc2Cl)cc1C(=O)NN=C(N)COc1cccc(C(F)(F)F)c1`, the EC50 in experiment [15] is 2.61 µM (active); in [19], > 150 µM (not active); in experiment [20], 133 µM (active); in experiment [21], 2.31 µM (active).
On to `Cc1cccc(-c2noc(CN(C(=O)c3ccc4c(c3)OCO4)C(C)C)n2)c1`, for which the EC50 in [15] was 8.31 µM (active).
Regarding `COc1cccc(C2C3=C(O)CC(C)(C)CC3=NC(C)=C2C(=O)Nc2nc3ccccc3s2)c1OC` (configuration not stated), in experiment [6], the IC50 is > 100 µM (active).
In the case of `N=c1n(CCN2CCCC2)c2ccccc2n1CC(O)c1ccco1` (configuration not stated), the IC50 in [16] and in [17] was > 66 µM (inactive) throughout.
With `COc1ccccc1C(CNC(=O)c1cccc(NS(=O)(=O)c2ccc(C)c(F)c2)c1)N1CCCC1` (configuration not stated), the IC50 in experiment [1] was 12.5 µM (active).
In the case of `CCC(C)(C)n1nnnc1C(c1ccc(C)cc1)N1CCN(Cc2ccc3c(c2)OCO3)CC1` (configuration not stated), in experiment [15], the EC50 is 6.68 µM (active).
Take `CCCc1nc2c(C)cc(Br)cn2c1Cc1ccsc1`: the figures for the IC50 in experiment [16] and in [17] were 35.7 µM (inactive) and 41.9 µM (inactive), respectively.
For `COc1cccc(/C=N/NC(=O)c2ccncc2)c1OC(=O)c1ccc(Br)cc1`, the IC50 in experiment [22] is 12.8 µM (active); in experiment [16], > 66 µM (inactive); in [17], 25.1 µM (inactive).
Take `C=CCOc1ccc(/C=N/O)cc1Cl`: the IC50 in experiment [6] was > 100 µM (active).
On to `COc1ccc(/N=C/c2c(O)oc3ccccc3c2=O)cc1`, for which the IC50 in [6] is > 100 µM (active).
